# Key:
# Experiment in all cases: relative viability (nuclei count vs DMSO), 5 days (fraction); higher = more cells survive
# Motesanib + Pemetrexed = compound: CC1(C)CNc2cc(NC(=O)c3cccnc3NCc3ccncc3)ccc21 [Motesanib] + Nc1nc2[nH]cc(CCc3ccc(C(=O)N[C@@H](CCC(=O)O)C(=O)O)cc3)c2c(=O)[nH]1 [Pemetrexed] (partner 0.2 µM)
# In short: (§1)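 Cells from lung cancer lines were seeded into 1536-well plates and, one day later, dosed by pin tool. Treatments were either a single drug or a fixed dose of an anchor drug with five library-drug doses (not always all listed) in √10 steps. After 5 days, nuclei were stained in a one-step fixation (final 0.05% Triton X-100, 1% formaldehyde, 1 ug/ml Hoechst) and counted on 4× images, and relative viability is the treated-to-vehicle nuclei ratio, as the median of duplicate plates.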
# Motesanib + Navitoclax = compound: CC1(C)CNc2cc(NC(=O)c3cccnc3NCc3ccncc3)ccc21 [Motesanib] + CC1(C)CCC(c2ccc(Cl)cc2)=C(CN2CCN(c3ccc(C(=O)NS(=O)(=O)c4ccc(N[C@H](CCN5CCOCC5)CSc5ccccc5)c(S(=O)(=O)C(F)(F)F)c4)cc3)CC2)C1 [Navitoclax] (partner 0.5 µM)
# In short: as §1
# [1] = compound: C[C@@]1(C(=O)Nc2ccc(F)nc2)CCCN1c1nc(Nc2cc(C3CC3)n[nH]2)c2cccn2n1 + N=C(N)NC(=N)NCCc1ccccc1 [Phenformin] (partner 250 µM)
# In short: as §1
# Motesanib + Bortezomib = compound: CC1(C)CNc2cc(NC(=O)c3cccnc3NCc3ccncc3)ccc21 [Motesanib] + CC(C)C[C@H](NC(=O)[C@H](Cc1ccccc1)NC(=O)c1cnccn1)B(O)O [Bortezomib] (partner 0.002 µM)
# In short: as §1
Cell Line,relative viability (Motesanib + Pemetrexed; first compound 0.01 µM),relative viability (Motesanib + Pemetrexed; first compound 0.03162 µM),relative viability (Motesanib + Pemetrexed; first compound 0.1 µM),relative viability (Motesanib + Pemetrexed; first compound 0.3162 µM),relative viability (Motesanib + Pemetrexed; first compound 1 µM),relative viability (Motesanib + Navitoclax; first compound 0.01 µM),relative viability (Motesanib + Navitoclax; first compound 0.03162 µM),relative viability (Motesanib + Navitoclax; first compound 0.1 µM),relative viability (Motesanib + Navitoclax; first compound 0.3162 µM),relative viability (Motesanib + Navitoclax; first compound 1 µM),relative viability ([1]; first compound 0.04 µM),relative viability ([1]; first compound 0.1265 µM),relative viability ([1]; first compound 0.4 µM),relative viability ([1]; first compound 1.265 µM),relative viability (Motesanib + Bortezomib; first compound 0.01 µM),relative viability (Motesanib + Bortezomib; first compound 0.03162 µM),relative viability (Motesanib + Bortezomib; first compound 0.1 µM),relative viability (Motesanib + Bortezomib; first compound 0.3162 µM),relative viability (Motesanib + Bortezomib; first compound 1 µM)
NCI-H1734,0.408,0.386,0.333,0.272,0.265,0.861,0.915,0.796,0.959,0.938,0.323,0.272,0.278,0.281,1,0.929,1.01,0.918,1.09
NCI-H1755,0.403,0.356,0.38,0.401,0.32,0.938,0.966,1.02,0.991,1,0.638,0.55,0.53,0.547,0.927,0.957,1.06,0.988,1.02
NCI-H1792,0.778,0.859,0.791,0.785,0.711,0.612,0.605,0.584,0.578,0.703,0.145,0.0792,0.208,0.189,0.931,0.737,0.976,1.04,1.03
NCI-H1915,0.54,0.484,0.451,0.463,0.442,0.782,0.747,0.824,0.794,0.784,0.372,0.381,0.378,0.347,0.959,0.929,0.936,0.98,0.989
NCI-H1975,0.283,0.281,0.274,0.271,0.239,1.11,1.12,1.05,1.11,1.26,0.407,0.36,0.326,0.314,0.378,0.406,0.326,0.391,0.369
NCI-H1993,0.452,0.623,0.533,0.641,0.57,1.15,0.882,0.912,0.921,0.802,0.495,0.657,0.541,0.55,1.09,1.06,1.08,1.28,1.06
NCI-H2009,0.949,1.02,1.01,1.06,0.973,1.12,1.19,1.15,1.21,1.18,0.539,0.493,0.479,0.481,1.07,1.05,1.05,1.2,1
NCI-H2023,0.224,0.201,0.245,0.217,0.263,0.949,0.916,1.02,1.02,0.98,0.354,0.271,0.294,0.189,0.934,1.07,0.887,0.966,1.09

# Source: the supplement of paper PMC10307832
